Measured values reported in patent US20010018051A1, “Inhibition of allograft and concordant xenograft rejection” (priority 1990, published 2001).

Key:
rabbit kidney xenografts = conditions: rabbit kidney into cats; cited from earlier work
complement activity = test: onset and duration of cobra venom factor activity after intramuscular administration; format: in vivo
Experimental: (§1) The minimum dosage of cobra venom factor is species dependent and can readily be determined by the CH50 assay. […] Effective and non-toxic dosages of other complement inhibitors can also readily be determined by those skilled in the art, for example, using the CH50 assay.
Cobra venom factor takes about 6 hours for its initial activity to take effect after intramuscular administration. Once the initial activity is observed, it can last for more than 1 day, for example 2 days, and so daily administration of cobra venom factor may not be necessary. In fact, it is preferred to administer cobra venom factor on alternate days, in which case the preferred daily dosages given above will be doubled on the day of administration.

hamster heart xenograft = hamster heart xenograft survival in rats; format: in vivo, rat; conditions: hamster heart in DA rats; i.m. on alternate days from time of transplantation (cyclosporin A 20 mg/kg, cobra venom factor 0.4 mg/kg)
Text: All other cardiac vessels were ligated.
Injections were given on alternate days thereafter.

[1] = format: in vivo; conditions: doses of 2 mg/kg
Text: as §1

In the case of `C[C@H](CS)C(=O)N1CCC[C@H]1C(=O)O` [captopril], the “prevention of hyperacute rejection” value (rabbit kidney xenografts) is given as “not prevented”.
In the case of `CCOC(=O)[C@H](CCc1ccccc1)N[C@@H](C)C(=O)N1CCC[C@H]1C(=O)O` [enalapril], the “prevention of hyperacute rejection” value (rabbit kidney xenografts) is given as “not prevented”.
In the case of `CCCCC[C@H](O)/C=C/[C@@H]1[C@H]2C/C(=C/CCCC(=O)O)O[C@H]2C[C@H]1O` [prostacyclin], the “prevention of hyperacute rejection” value (rabbit kidney xenografts) is listed as “not prevented”.
In the case of `O=C(O)c1cc(=O)c2c(OCC(O)COc3cccc4oc(C(=O)O)cc(=O)c34)cccc2o1` [sodium chromoglycate], the “prevention of hyperacute rejection” value (rabbit kidney xenografts) is listed as “not prevented”.
In the case of cobra venom factor, the “duration of activity once observed” value (complement activity) is reported as “more than 1 day”, the “time for initial activity to take effect” value (complement activity) is reported as “about 6 hours” and the “median graft survival rate” value (hamster heart xenograft) is reported as 6 days. The toxicity [1] was “do not appear to be toxic” and the “prolongation in graft survival” value (rabbit kidney xenografts) was “up to seven days”.
